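Five compound concentrations were applied to cells in 96-well plates for 48 hours; endpoints were derived by simple linear interpolation of the resulting dose-response curve. The concentration for 50% growth inhibition is given as GI50.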 Active and inactive are the calls of the source. Rule as the data show it: active = GI50 up to about 1.1 µM and inactive = higher.
Assays:
Assay in all cases: DTP human tumour cell line panel, 48 h
786-0 = tested on: 786-0
A498 = tested on: A498
A549 = tested on: A549
ACHN = tested on: ACHN
BT-549 = tested on: BT-549
CAKI-1 = tested on: CAKI-1
CCRF-CEM = tested on: CCRF-CEM
COLO 205 = tested on: COLO 205
DU-145 = tested on: DU-145
EKVX = tested on: EKVX
HCC 2998 = tested on: HCC 2998
HCT-116 = tested on: HCT-116
HCT-15 = tested on: HCT-15
HL-60 = tested on: HL-60
HOP-62 = tested on: HOP-62
HOP-92 = tested on: HOP-92
Hs-578T = tested on: Hs-578T
IGROV-1 = tested on: IGROV-1
K562 = tested on: K562
KM12 = tested on: KM12
LOX IMVI = tested on: LOX IMVI
M14 = tested on: M14
MCF7 = tested on: MCF7
MDA-MB-231 = tested on: MDA-MB-231
MDA-MB-435 = tested on: MDA-MB-435
MDA-N = tested on: MDA-N
MOLT-4 = tested on: MOLT-4
Malme-3M = tested on: Malme-3M
NCI-H226 = tested on: NCI-H226
NCI-H23 = tested on: NCI-H23
NCI-H460 = tested on: NCI-H460
NCI-H522 = tested on: NCI-H522
NCI/ADR-RES = tested on: NCI/ADR-RES
OVCAR-4 = tested on: OVCAR-4
OVCAR-5 = tested on: OVCAR-5
PC-3 = tested on: PC-3
RPMI-8226 = tested on: RPMI-8226
RXF 393 = tested on: RXF 393
SF-268 = tested on: SF-268
SF-295 = tested on: SF-295
SK-MEL-28 = tested on: SK-MEL-28
SK-MEL-2 = tested on: SK-MEL-2
SK-MEL-5 = tested on: SK-MEL-5
SK-OV-3 = tested on: SK-OV-3
SN12C = tested on: SN12C
SNB-19 = tested on: SNB-19
SR = tested on: SR
SW-620 = tested on: SW-620
T47D = tested on: T47D
TK-10 = tested on: TK-10
U-251 = tested on: U-251
UACC-257 = tested on: UACC-257
UACC-62 = tested on: UACC-62
UO-31 = tested on: UO-31
HT-29 = tested on: HT-29
OVCAR-3 = tested on: OVCAR-3
OVCAR-8 = tested on: OVCAR-8
SF-539 = tested on: SF-539
SNB-75 = tested on: SNB-75

Structure (SMILES): Cc1ccc(-c2nc3cc(F)c(N4CCN(C)CC4)cc3[nH]2)cc1
- GI50 (786-0): 17.6 µM (inactive)
- GI50 (A498): 32.7 µM (inactive)
- GI50 (A549): 19.1 µM (inactive)
- GI50 (ACHN): 21.1 µM (inactive)
- GI50 (BT-549): 22.1 µM (inactive)
- GI50 (CAKI-1): 32.1 µM (inactive)
- GI50 (CCRF-CEM): 23.4 µM (inactive)
- GI50 (COLO 205): 15.9 µM (inactive)
- GI50 (DU-145): 31.1 µM (inactive)
- GI50 (EKVX): 23.1 µM (inactive)
- GI50 (HCC 2998): 11.9 µM (inactive)
- GI50 (HCT-116): 19.6 µM (inactive)
- GI50 (HCT-15): 6.32 µM
- GI50 (HL-60): 21.4 µM (inactive)
- GI50 (HOP-62): 15.8 µM (inactive)
- GI50 (HOP-92): 66.5 µM (inactive)
- GI50 (Hs-578T): 10.7 µM (inactive)
- GI50 (IGROV-1): 22.7 µM (inactive)
- GI50 (K562): 16.4 µM (inactive)
- GI50 (KM12): 14 µM (inactive)
- GI50 (LOX IMVI): 27.9 µM (inactive)
- GI50 (M14): 16.7 µM (inactive)
- GI50 (MCF7): 15.3 µM (inactive)
- GI50 (MDA-MB-231): 71.3 µM (inactive)
- GI50 (MDA-MB-435): 22.4 µM (inactive)
- GI50 (MDA-N): 32.4 µM (inactive)
- GI50 (MOLT-4): 22.8 µM (inactive)
- GI50 (Malme-3M): 15.3 µM (inactive)
- GI50 (NCI-H226): 8.3 µM (inactive)
- GI50 (NCI-H23): 22.2 µM (inactive)
- GI50 (NCI-H460): 16.9 µM (inactive)
- GI50 (NCI-H522): 14.5 µM (inactive)
- GI50 (NCI/ADR-RES): 28.8 µM (inactive)
- GI50 (OVCAR-4): 17.1 µM (inactive)
- GI50 (OVCAR-5): 21.9 µM (inactive)
- GI50 (PC-3): 24.1 µM (inactive)
- GI50 (RPMI-8226): 33.6 µM (inactive)
- GI50 (RXF 393): 18.5 µM (inactive)
- GI50 (SF-268): 15.3 µM (inactive)
- GI50 (SF-295): 16.6 µM (inactive)
- GI50 (SK-MEL-28): 26.2 µM (inactive)
- GI50 (SK-MEL-2): 17.1 µM (inactive)
- GI50 (SK-MEL-5): 11.4 µM (inactive)
- GI50 (SK-OV-3): 23.4 µM (inactive)
- GI50 (SN12C): 54.1 µM (inactive)
- GI50 (SNB-19): 22 µM (inactive)
- GI50 (SR): 32.6 µM (inactive)
- GI50 (SW-620): 37.1 µM (inactive)
- GI50 (T47D): 23 µM (inactive)
- GI50 (TK-10): 22.2 µM (inactive)
- GI50 (U-251): 29.5 µM (inactive)
- GI50 (UACC-257): 17.2 µM (inactive)
- GI50 (UACC-62): 16.3 µM (inactive)
- GI50 (UO-31): 13.9 µM (inactive)

Structure (SMILES): Cc1n[nH]c(=O)n1/N=C/c1cccnc1
- GI50 (786-0): > 100 µM (inactive)
- GI50 (A498): > 100 µM (inactive)
- GI50 (A549): > 100 µM (inactive)
- GI50 (ACHN): > 100 µM (inactive)
- GI50 (BT-549): > 100 µM (inactive)
- GI50 (CAKI-1): > 100 µM (inactive)
- GI50 (CCRF-CEM): > 100 µM (inactive)
- GI50 (COLO 205): > 100 µM (inactive)
- GI50 (DU-145): > 100 µM (inactive)
- GI50 (EKVX): > 100 µM (inactive)
- GI50 (HCC 2998): > 100 µM (inactive)
- GI50 (HCT-116): > 100 µM (inactive)
- GI50 (HCT-15): > 100 µM
- GI50 (HL-60): > 100 µM (inactive)
- GI50 (HOP-62): > 100 µM (inactive)
- GI50 (HOP-92): 33.4 µM (inactive)
- GI50 (HT-29): > 100 µM (inactive)
- GI50 (Hs-578T): > 100 µM (inactive)
- GI50 (IGROV-1): > 100 µM (inactive)
- GI50 (K562): > 100 µM (inactive)
- GI50 (KM12): > 100 µM (inactive)
- GI50 (LOX IMVI): > 100 µM (inactive)
- GI50 (M14): > 100 µM (inactive)
- GI50 (MCF7): > 100 µM (inactive)
- GI50 (MDA-MB-231): > 100 µM (inactive)
- GI50 (MDA-MB-435): > 100 µM (inactive)
- GI50 (MDA-N): > 100 µM (inactive)
- GI50 (MOLT-4): > 100 µM (inactive)
- GI50 (Malme-3M): > 100 µM (inactive)
- GI50 (NCI-H226): > 100 µM (inactive)
- GI50 (NCI-H23): > 100 µM (inactive)
- GI50 (NCI-H460): > 100 µM (inactive)
- GI50 (NCI-H522): > 100 µM (inactive)
- GI50 (NCI/ADR-RES): > 100 µM (inactive)
- GI50 (OVCAR-3): > 100 µM (inactive)
- GI50 (OVCAR-4): > 100 µM (inactive)
- GI50 (OVCAR-5): > 100 µM (inactive)
- GI50 (OVCAR-8): > 100 µM (inactive)
- GI50 (PC-3): > 100 µM (inactive)
- GI50 (RPMI-8226): > 100 µM (inactive)
- GI50 (SF-268): > 100 µM (inactive)
- GI50 (SF-295): > 100 µM (inactive)
- GI50 (SF-539): > 100 µM (inactive)
- GI50 (SK-MEL-28): > 100 µM (inactive)
- GI50 (SK-MEL-2): > 100 µM (inactive)
- GI50 (SK-MEL-5): > 100 µM (inactive)
- GI50 (SK-OV-3): > 100 µM (inactive)
- GI50 (SN12C): > 100 µM (inactive)
- GI50 (SNB-19): > 100 µM (inactive)
- GI50 (SR): > 100 µM (inactive)
- GI50 (SW-620): > 100 µM (inactive)
- GI50 (T47D): > 100 µM (inactive)
- GI50 (TK-10): > 100 µM (inactive)
- GI50 (U-251): > 100 µM (inactive)
- GI50 (UACC-257): > 100 µM (inactive)
- GI50 (UACC-62): > 100 µM (inactive)
- GI50 (UO-31): > 100 µM (inactive)

Structure (SMILES): CCN1CC2(COC)C(O)CC(OC)C34C5CC6(O)C(OC)C=C(C5C6OC(=O)c5ccc(OC)c(OC)c5)C(C(OC)C23)C14 (stereo not given)
- GI50 (786-0): > 7.5 µM (inactive)
- GI50 (A498): > 7.5 µM (inactive)
- GI50 (A549): > 7.5 µM (inactive)
- GI50 (ACHN): > 7.5 µM (inactive)
- GI50 (BT-549): > 7.5 µM (inactive)
- GI50 (CAKI-1): > 7.5 µM (inactive)
- GI50 (CCRF-CEM): > 7.5 µM (inactive)
- GI50 (COLO 205): > 7.5 µM (inactive)
- GI50 (DU-145): > 7.5 µM (inactive)
- GI50 (EKVX): > 7.5 µM (inactive)
- GI50 (HCC 2998): > 7.5 µM (inactive)
- GI50 (HCT-116): > 7.5 µM (inactive)
- GI50 (HCT-15): > 7.5 µM
- GI50 (HL-60): > 7.5 µM (inactive)
- GI50 (HOP-92): > 7.5 µM (inactive)
- GI50 (HT-29): > 7.5 µM (inactive)
- GI50 (Hs-578T): > 7.5 µM (inactive)
- GI50 (IGROV-1): > 7.5 µM (inactive)
- GI50 (K562): > 7.5 µM (inactive)
- GI50 (KM12): > 7.5 µM (inactive)
- GI50 (LOX IMVI): > 7.5 µM (inactive)
- GI50 (M14): > 7.5 µM (inactive)
- GI50 (MCF7): > 7.5 µM (inactive)
- GI50 (MDA-MB-231): > 7.5 µM (inactive)
- GI50 (MDA-MB-435): > 7.5 µM (inactive)
- GI50 (MDA-N): > 7.5 µM (inactive)
- GI50 (Malme-3M): > 7.5 µM (inactive)
- GI50 (NCI-H226): > 7.5 µM (inactive)
- GI50 (NCI-H23): > 7.5 µM (inactive)
- GI50 (NCI-H460): > 7.5 µM (inactive)
- GI50 (NCI-H522): > 7.5 µM (inactive)
- GI50 (NCI/ADR-RES): > 7.5 µM (inactive)
- GI50 (OVCAR-4): > 7.5 µM (inactive)
- GI50 (OVCAR-5): > 7.5 µM (inactive)
- GI50 (OVCAR-8): > 7.5 µM (inactive)
- GI50 (PC-3): > 7.5 µM (inactive)
- GI50 (SF-268): > 7.5 µM (inactive)
- GI50 (SF-295): > 7.5 µM (inactive)
- GI50 (SF-539): > 7.5 µM (inactive)
- GI50 (SK-MEL-28): > 7.5 µM (inactive)
- GI50 (SK-MEL-2): > 7.5 µM (inactive)
- GI50 (SK-MEL-5): > 7.5 µM (inactive)
- GI50 (SK-OV-3): > 7.5 µM (inactive)
- GI50 (SN12C): > 7.5 µM (inactive)
- GI50 (SNB-19): > 7.5 µM (inactive)
- GI50 (SNB-75): 4.51 µM (inactive)
- GI50 (SR): > 7.5 µM (inactive)
- GI50 (SW-620): > 7.5 µM (inactive)
- GI50 (T47D): > 7.5 µM (inactive)
- GI50 (TK-10): > 7.5 µM (inactive)
- GI50 (U-251): > 7.5 µM (inactive)
- GI50 (UACC-257): > 7.5 µM (inactive)
- GI50 (UACC-62): > 7.5 µM (inactive)
- GI50 (UO-31): > 7.5 µM (inactive)

Reference: ChEMBL document CHEMBL1201862, “PubChem BioAssay data set” (2004)
